Consider 1 molecule from ChEMBL document CHEMBL5550160, “Leveraging a rationally designed veliparib-based anilide eliciting anti-leukemic effects for the design of pH-responsive polymer nanoformulation” (Eur J Med Chem, 2024).

SMILES strings stand for the structures.

The target of one assay is Histone deacetylase 2 (Homo sapiens, UniProt Q92769). Kind of assay: Inhibition of HDAC2 (unknown origin) assessed as residual activity at 1.1 x 10^-6M (reference value: 99.81%). The settings on record: dose 1.1 10^-6M.
Sequence of Histone deacetylase 2 (Q92769 whole entry, the tested form may be a part): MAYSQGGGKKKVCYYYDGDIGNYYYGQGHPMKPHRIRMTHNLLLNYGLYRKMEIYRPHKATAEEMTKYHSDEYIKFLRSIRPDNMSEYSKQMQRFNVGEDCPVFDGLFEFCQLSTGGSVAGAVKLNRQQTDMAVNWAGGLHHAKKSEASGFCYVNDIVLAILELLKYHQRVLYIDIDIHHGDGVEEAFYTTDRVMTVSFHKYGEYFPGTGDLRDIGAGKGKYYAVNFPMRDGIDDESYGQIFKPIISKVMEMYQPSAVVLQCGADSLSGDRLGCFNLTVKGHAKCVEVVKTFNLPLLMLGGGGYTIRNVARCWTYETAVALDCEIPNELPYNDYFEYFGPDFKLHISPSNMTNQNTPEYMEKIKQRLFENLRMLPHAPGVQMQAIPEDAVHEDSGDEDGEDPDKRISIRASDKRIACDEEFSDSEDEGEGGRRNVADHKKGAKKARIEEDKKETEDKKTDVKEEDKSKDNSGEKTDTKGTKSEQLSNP
The target of a further assay is Histone deacetylase 1 (Homo sapiens, UniProt Q13547). The assay is described as follows: Inhibition of HDAC1 (unknown origin) using p53 residues 379 to 382 [RHKK(Ac)] as fluorogenic substrate assessed as residual activity at 4.12 x 10^-8M (reference value: 98.06%). The settings on record: dose 4.12 10^-8M.
Sequence of Histone deacetylase 1 (Q13547 whole entry, the tested form may be a part): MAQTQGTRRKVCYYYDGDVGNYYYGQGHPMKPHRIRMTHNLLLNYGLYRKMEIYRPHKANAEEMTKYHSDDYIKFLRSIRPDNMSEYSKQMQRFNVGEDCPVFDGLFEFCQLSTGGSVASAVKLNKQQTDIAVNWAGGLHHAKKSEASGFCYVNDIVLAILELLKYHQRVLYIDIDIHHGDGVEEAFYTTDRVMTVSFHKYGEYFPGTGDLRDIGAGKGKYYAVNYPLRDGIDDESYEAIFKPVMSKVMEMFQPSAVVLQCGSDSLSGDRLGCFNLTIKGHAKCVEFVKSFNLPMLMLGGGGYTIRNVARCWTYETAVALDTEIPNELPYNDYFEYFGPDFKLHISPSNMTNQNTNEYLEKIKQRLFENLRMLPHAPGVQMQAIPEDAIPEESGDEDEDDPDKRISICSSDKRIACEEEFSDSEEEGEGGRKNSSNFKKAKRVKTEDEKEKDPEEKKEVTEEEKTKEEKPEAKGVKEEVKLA
For assay [1], the target named is T1, Polyamine deacetylase HDAC10 (Homo sapiens) (UniProt Q969S8).
T1 sequence (whole entry): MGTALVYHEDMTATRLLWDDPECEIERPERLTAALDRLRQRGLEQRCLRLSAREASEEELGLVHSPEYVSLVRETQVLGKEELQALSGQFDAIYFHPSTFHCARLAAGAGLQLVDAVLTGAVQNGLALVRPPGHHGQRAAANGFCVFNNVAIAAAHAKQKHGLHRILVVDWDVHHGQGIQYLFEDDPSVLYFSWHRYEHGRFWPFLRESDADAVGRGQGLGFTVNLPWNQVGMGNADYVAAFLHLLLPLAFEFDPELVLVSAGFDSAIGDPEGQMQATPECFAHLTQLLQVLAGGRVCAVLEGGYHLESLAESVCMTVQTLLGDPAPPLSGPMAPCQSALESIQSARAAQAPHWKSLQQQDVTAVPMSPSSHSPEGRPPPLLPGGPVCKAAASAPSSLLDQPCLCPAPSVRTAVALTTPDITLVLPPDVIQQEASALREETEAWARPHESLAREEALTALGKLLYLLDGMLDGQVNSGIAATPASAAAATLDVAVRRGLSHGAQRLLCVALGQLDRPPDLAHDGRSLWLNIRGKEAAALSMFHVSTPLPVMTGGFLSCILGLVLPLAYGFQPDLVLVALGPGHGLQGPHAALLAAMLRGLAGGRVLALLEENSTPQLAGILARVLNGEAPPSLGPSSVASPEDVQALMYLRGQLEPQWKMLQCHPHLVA
Kind of assay: Inhibition of HDAC10 (unknown origin) assessed as residual activity at 3.70 x 10^-7M (reference value: 101.54%). The following applies: dose 3.7 10^-7M.

Take `NC(=O)c1cccc2[nH]c(-c3ccc(NCc4ccc(C(=O)Nc5ccccc5N)cc4)cc3)nc12`: the values for the Activity (on Histone deacetylase 2; at Histone deacetylase 1; in assay [1]) were 12.8%, 51.3% and 94.8%, respectively.
